Source: patent US8088930B2, “Benzimidazole derivatives” (Hoffmann-La Roche Inc., priority 2008, dated 2012)

Each molecule was assayed against T1, FXR ligand binding domain (GST-FXR LBD fusion protein, human FXR aa 193-473) (Homo sapiens, UniProt Q96RI1) (assay: Radioligand binding assay (scintillation proximity, radioligand displacement)). Settings: 40 nM GST-FXR LBD on SPA beads, test compound 6×10^−9 M to 2.5×10^−5 M, read-out: h-IC50 Binding.
T1 construct: fused on or other part: Glutathione-S-transferase (GST) fused N-terminally to the FXR LBD, used to capture the protein on glutathione SPA beads
T1 sequence (Q96RI1 211-486 limits assumed): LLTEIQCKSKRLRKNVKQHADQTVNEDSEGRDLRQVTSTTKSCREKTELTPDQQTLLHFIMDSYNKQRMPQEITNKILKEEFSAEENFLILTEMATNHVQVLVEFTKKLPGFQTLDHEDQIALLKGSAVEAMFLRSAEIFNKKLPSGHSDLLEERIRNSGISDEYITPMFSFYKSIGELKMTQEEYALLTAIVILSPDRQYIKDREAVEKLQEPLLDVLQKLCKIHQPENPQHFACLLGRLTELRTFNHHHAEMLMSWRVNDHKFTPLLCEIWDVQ
Procedure: The following tests were carried out in order to determine the activity of the compounds of formula (I).
To accomplish this, the portions of the sequences encoding the FXR LBD were amplified by polymerase chain reaction (PCR) from a full-length clone by PCR and then subcloned into the plasmid vectors. The final clone was verified by DNA sequence analysis.
The induction, expression, and subsequent purification of GST-LBD fusion protein was performed in E. coli strain BL21(pLysS) cells by standard methods (Current Protocols in Molecular Biology, Wiley Press, ed. Ausubel et al.).
Radioligand Binding Assay
Binding of test substances to the FXR ligand binding domain was assessed in a radioligand displacement assay. The assay was performed in a buffer consisting of 50 mM Hepes, pH 7.4, 10 mM NaCl, 5 mM MgCl2, 0.01% CHAPS. For each reaction well in a 96-well plate, 40 nM of GST-FXR LBD fusion protein was bound to 10 μg glutathione yttrium silicate SPA beads (Pharmacia Amersham) in a final volume of 50 μl by shaking. A radioligand (e.g., 20 nM of 2,N-dicyclohexyl-2-[2-(2,4 dimethoxy-phenyl)-benzoimidazol-1-yl]-acetamide) and test compounds were added, and scintillation proximity counting was performed. All binding assays were performed in 96-well plates and the amount of bound ligand was measured on a Packard TopCount using OptiPlates (Packard).

In order of falling IC50:
1. O=C(O)c1ccc(COCC(C2CCCCC2)n2c(-c3ccc(Cl)cc3)nc3cc(F)c(F)cc32)nc1 (stereo not shown) [Example 67, 6-{2-[2-(4-Chloro-phenyl)-5,6-difluoro-benzoimidazol-1-yl]-2-cyclohexyl-ethoxymethyl}-nicotinic acid]  2500 nM
2. O=C(O)c1ccccc1OCC(C1CCCCC1)n1c(-c2ccc(Cl)cc2)nc2cc(F)c(F)cc21 (stereo not shown) [Example 14, 2-{2-[2-(4-Chloro-phenyl)-5,6-difluoro-benzoimidazol-1-yl]-2-cyclohexyl-ethoxy}-benzoic acid]  2000 nM
3. O=C(O)c1ccnc(OCC(C2CCCCC2)n2c(-c3ccc(Cl)cc3)nc3cc(F)c(F)cc32)c1 (stereo not shown) [Example 37, 2-{2-[2-(4-Chloro-phenyl)-5,6-difluoro-benzoimidazol-1-yl]-2-cyclohexyl-ethoxy}-isonicotinic acid]  400 nM
4. O=C(O)C1(Oc2ccc(OCC(C3CCCCC3)n3c(-c4ccc(Cl)cc4)nc4cc(F)c(F)cc43)nc2)CC1 (single isomer, unassigned; (-)) [Example 51, (−)-1-(6-{2-[2-(4-Chloro-phenyl)-5,6-difluoro-benzoimidazol-1-yl]-2-cyclohexyl-ethoxy}-pyridin-3-yloxy)-cyclopropanecarboxylic acid]  300 nM
5. Fc1cc2nc(-c3ccc(Cl)cc3)n(C(COc3ccc(-c4nnn[nH]4)cn3)C3CCCCC3)c2cc1F (single isomer, unassigned; (+)) [Example 62, (+)-2-(4-Chloro-phenyl)-1-{1-cyclohexyl-2-[5-(1H-tetrazol-5-yl)-pyridin-2-yloxy]-ethyl}-5,6-difluoro-1H-benzoimidazole]  200 nM
6. Fc1cc2nc(-c3ccc(Cl)cc3)n(C(COc3cccnc3)C3CCCCC3)c2cc1F (stereo not shown) [Example 35, 2-(4-Chloro-phenyl)-1-[1-cyclohexyl-2-(pyridin-3-yloxy)-ethyl]-5,6-difluoro-1H-benzoimidazole]  200 nM
7. O=C(O)C1(Oc2ccc(OCC(C3CCCCC3)n3c(-c4ccc(Cl)cc4)nc4cc(F)c(F)cc43)cc2)CC1 (single isomer, unassigned; (+)) [Example 122, (+)-1-(4-{2-[2-(4-Chloro-phenyl)-5,6-difluoro-benzoimidazol-1-yl]-2-cyclohexyl-ethoxy}-phenoxy)-cyclopropanecarboxylic acid]  180 nM
8. Cc1cc(-c2nnn[nH]2)cc(C)c1OCC(C1CC1)n1c(-c2ccc(Cl)cc2)nc2cc(F)c(F)cc21 (stereo not shown) [Example 136, 2-(4-Chloro-phenyl)-1-{1-cyclopropyl-2-[2,6-dimethyl-4-(1H-tetrazol-5-yl)-phenoxy]-ethyl}-5,6-difluoro-1H-benzoimidazole]  100 nM
9. O=C(O)c1ccc(OCC(C2CCCCC2)n2c(-c3ccc(Cl)cc3)nc3cc(F)c(F)cc32)c(F)c1 (single isomer, unassigned; (+)) [Example 9, (+)-4-{2-[2-(4-Chloro-phenyl)-5,6-difluoro-benzoimidazol-1-yl]-2-cyclohexyl-ethoxy}-3-fluoro-benzoic acid]  100 nM
10. O=C(O)C1(Oc2ccc(OCC(C3CCCCC3)n3c(-c4ccc(Cl)cc4)nc4cc(F)c(F)cc43)nc2)CC1 (single isomer, unassigned; (+)) [Example 52, (+)-1-(6-{2-[2-(4-Chloro-phenyl)-5,6-difluoro-benzoimidazol-1-yl]-2-cyclohexyl-ethoxy}-pyridin-3-yloxy)-cyclopropanecarboxylic acid]  80 nM
11. O=C(O)c1ccc(OCC(C2CCCCC2)n2c(-c3ccc(Cl)cc3)nc3cc(F)c(F)cc32)cc1 (stereo not shown) [Example 4, 4-{2-[2-(4-Chloro-phenyl)-5,6-difluoro-benzoimidazol-1-yl]-2-cyclohexyl-ethoxy}-benzoic acid]  70 nM
12. O=C(O)c1ccc(COCC(C2CCCCC2)n2c(-c3ccc(Cl)cc3)nc3cc(F)c(F)cc32)cc1 (single isomer, unassigned; (-)) [Example 68, (−)-4-{2-[2-(4-Chloro-phenyl)-5,6-difluoro-benzoimidazol-1-yl]-2-cyclohexyl-ethoxymethyl}-benzoic acid]  60 nM
13. COc1ccc(-c2nc3cc(F)c(F)cc3n2C(COc2c(F)cc(C(=O)O)cc2F)C2CCCCC2)c(OC)n1 (single isomer, unassigned; (+)) [Example 97, (+)-4-{2-Cyclohexyl-2-[2-(2,6-dimethoxy-pyridin-3-yl)-5,6-difluoro-benzoimidazol-1-yl]-ethoxy}-3,5-difluoro-benzoic acid]  50 nM
14. Fc1cc2nc(-c3ccc(Cl)cc3)n(C(COc3ccccc3F)C3CCCCC3)c2cc1F (stereo not shown) [Example 34, 2-(4-Chloro-phenyl)-1-[1-cyclohexyl-2-(2-fluoro-phenoxy)-ethyl]-5,6-difluoro-1H-benzoimidazole]  40 nM
15. O=C(O)c1cnc(OCC(C2CCCCC2)n2c(-c3ccc(Cl)cc3)nc3cc(F)c(F)cc32)c(Cl)c1 (stereo not shown) [Example 22, 5-Chloro-6-{2-[2-(4-chloro-phenyl)-5,6-difluoro-benzoimidazol-1-yl]-2-cyclohexyl-ethoxy}-nicotinic acid]  30 nM
16. O=C(O)c1cc(F)c(OCC(C2CCCCC2)n2c(-c3ccc(Cl)cc3)nc3cc(F)c(F)cc32)c(Cl)c1 (single isomer, unassigned; (+)) [Example 78, (+)-3-Chloro-4-{2-[2-(4-chloro-phenyl)-5,6-difluoro-benzoimidazol-1-yl]-2-cyclohexyl-ethoxy}-5-fluoro-benzoic acid]  30 nM
17. Cc1cc(-c2nnn[nH]2)cc(C)c1OCC(C1CCCCC1)n1c(-c2ccc(Cl)cc2)nc2ccccc21 (stereo not shown) [Example 111, 2-(4-Chloro-phenyl)-1-{1-cyclohexyl-2-[2,6-dimethyl-4-(1H-tetrazol-5-yl)-phenoxy]-ethyl}-1H-benzoimidazole]  20 nM
18. Cc1cc(-c2nnn[nH]2)cc(C)c1OCC(C1CCCC1)n1c(-c2ccc(Cl)cc2)nc2cc(F)c(F)cc21 (stereo not shown) [Example 135, 2-(4-Chloro-phenyl)-1-{1-cyclopentyl-2-[2,6-dimethyl-4-(1H-tetrazol-5-yl)-phenoxy]-ethyl}-5,6-difluoro-1H-benzoimidazole]  20 nM
19. Cc1cc(Cl)ccc1-c1nc2cc(F)c(F)cc2n1C(COc1c(F)cc(C(=O)O)cc1F)C1CCCCC1 (stereo not shown) [Example 124, 4-{2-[2-(4-Chloro-2-methyl-phenyl)-5,6-difluoro-benzoimidazol-1-yl]-2-cyclohexyl-ethoxy}-3,5-difluoro-benzoic acid]  3 nM
20. O=C(O)c1cc(F)c(OCC(C2CCCCC2)n2c(-c3ccc(Cl)cc3)nc3cc(F)c(F)cc32)c(Cl)c1 (single isomer, unassigned; (-)) [Example 77, (−)-3-Chloro-4-{2-[2-(4-chloro-phenyl)-5,6-difluoro-benzoimidazol-1-yl]-2-cyclohexyl-ethoxy}-5-fluoro-benzoic acid]  3 nM
21. CC(C)(Oc1c(F)cc(-c2nnn[nH]2)cc1F)C(C1CCCCC1)n1c(-c2ccc(Cl)cc2)nc2cc(F)c(F)cc21 (single isomer, unassigned) [Example 115, (+) or (−)-2-(4-Chloro-phenyl)-1-[1-cyclohexyl-2-[2,6-difluoro-4-(1H-tetrazol-5-yl)-phenoxy]-2-methyl-propyl]-5,6-difluoro-1H-benzoimidazole]  2 nM
22. COc1ccc(-c2nc3cc(F)c(F)cc3n2C(COc2c(C)cc(-c3nnn[nH]3)cc2C)C2CCCCC2)c(OC)n1 (stereo not shown) [Example 99, 1-{1-cyclohexyl-2-[2,6-dimethyl-4-(1H-tetrazol-5-yl)-phenoxy]-ethyl}-2-(2,6-dimethoxy-pyridin-3-yl)-5,6-difluoro-1H-benzoimidazole]  2 nM
23. COc1ccc(-c2nc3cc(F)c(F)cc3n2C(COc2c(C)cc(C(=O)O)cc2C)C2CCCCC2)c(OC)n1 (stereo not shown) [Example 82, 4-{2-Cyclohexyl-2-[2-(2,6-dimethoxy-pyridin-3-yl)-5,6-difluoro-benzoimidazol-1-yl]-ethoxy}-3,5-dimethyl-benzoic acid]  1 nM
24. COc1ccc(-c2nc3cc(F)c(F)cc3n2C(CCc2ccc(C(=O)O)cc2)C2CCCCC2)c(OC)n1 (single isomer, unassigned; (+)) [Example 147, (+)-4-{3-Cyclohexyl-3-[2-(2,6-dimethoxy-pyridin-3-yl)-5,6-difluoro-benzoimidazol-1-yl]-propyl}-benzoic acid]  0.4 nM

Same assay, conditions: h-IC50 Binding, 40 nM GST-FXR LBD on SPA beads, test compound 6×10^−9 M to 2.5×10^−5 M

In the case of `O=C(O)c1ccc(OCC(C2CCCCC2)n2c(-c3ccc(Cl)cc3)nc3cc(F)c(F)cc32)c(Cl)c1` (stereo not shown) [Example 10, 3-Chloro-4-{2-[2-(4-chloro-phenyl)-5,6-difluoro-benzoimidazol-1-yl]-2-cyclohexyl-ethoxy}-benzoic acid], the IC50 is reported as 30 nM.
